According to ChEMBL document CHEMBL3585344, “Thiazole-based aminopyrimidines and N-phenylpyrazolines as potent antimicrobial agents: synthesis and biological evaluation” (2014):
≈ marks a conversion by molar mass, not a printed value.

Assays:
Escherichia coli [1] = experiment: Antibacterial activity against Escherichia coli ATCC 35210 after 24 hrs by microdilution method; format: functional; conditions: ATCC 35210, 24 h
Escherichia coli [2] = experiment: Bactericidal activity against Escherichia coli ATCC 35210 after 72 hrs by microdilution method; format: functional
Talaromyces funiculosus [3] = experiment: Fungicidal activity against Penicillium funiculosum ATCC 36839 after 72 hrs by microdilution method; format: functional
Trichoderma viride [4] = experiment: Fungicidal activity against Trichoderma viride IAM 5061 after 72 hrs by microdilution method; format: functional
Micrococcus flavus [5] = experiment: Antibacterial activity against Micrococcus flavus ATCC 10240 after 24 hrs by microdilution method; format: functional; conditions: ATCC 10240, 24 h
Bacillus cereus [6] = experiment: Bactericidal activity against Bacillus cereus clinical isolate after 72 hrs by microdilution method; format: functional
Micrococcus flavus [7] = experiment: Bactericidal activity against Micrococcus flavus ATCC 10240 after 72 hrs by microdilution method; format: functional
Trichoderma viride [8] = experiment: Antifungal activity against Trichoderma viride IAM 5061 after 72 hrs by microdilution method; format: functional; conditions: IAM 5061, 72 h
Bacillus cereus [9] = experiment: Antibacterial activity against Bacillus cereus clinical isolate after 24 hrs by microdilution method; format: functional
Aspergillus ochraceus [10] = experiment: Antifungal activity against Aspergillus ochraceus ATCC 12066 after 72 hrs by microdilution method; format: functional; conditions: ATCC 12066, 72 h
Pseudomonas aeruginosa [11] = experiment: Bactericidal activity against Pseudomonas aeruginosa ATCC 27853 after 72 hrs by microdilution method; format: functional
Talaromyces funiculosus [12] = experiment: Antifungal activity against Penicillium funiculosum ATCC 36839 after 72 hrs by microdilution method; format: functional; conditions: ATCC 36839, 72 h
Pseudomonas aeruginosa [13] = experiment: Antibacterial activity against Pseudomonas aeruginosa ATCC 27853 after 24 hrs by microdilution method; format: functional; conditions: ATCC 27853, 24 h
Aspergillus niger [14] = experiment: Antifungal activity against Aspergillus niger ATCC 6275 after 72 hrs by microdilution method; format: functional; conditions: ATCC 6275, 72 h
Aspergillus fumigatus [15] = experiment: Fungicidal activity against Aspergillus fumigatus isolated from human after 72 hrs by microdilution method; format: functional
Aspergillus versicolor [16] = experiment: Antifungal activity against Aspergillus versicolor ATCC 11730 after 72 hrs by microdilution method; format: functional; conditions: ATCC 11730, 72 h
Aspergillus ochraceus [17] = experiment: Fungicidal activity against Aspergillus ochraceus ATCC 12066 after 72 hrs by microdilution method; format: functional
Listeria monocytogenes [18] = experiment: Bactericidal activity against Listeria monocytogenes NCTC 7973 after 72 hrs by microdilution method; format: functional
Candida albicans [19] = experiment: Antifungal activity against Candida albicans ATCC 10231 isolated from human after 72 hrs by microdilution method; format: functional; conditions: ATCC 10231, 72 h
Salmonella typhimurium [20] = experiment: Bactericidal activity against Salmonella typhimurium ATCC 13311 after 72 hrs by microdilution method; format: functional, Salmonella enterica subsp. enterica serovar Typhimurium
Aspergillus versicolor [21] = experiment: Fungicidal activity against Aspergillus versicolor ATCC 11730 after 72 hrs by microdilution method; format: functional
Salmonella typhimurium [22] = experiment: Antibacterial activity against Salmonella typhimurium ATCC 13311 after 24 hrs by microdilution method; format: functional, Salmonella enterica subsp. enterica serovar Typhimurium; conditions: Salmonella enterica, ATCC 13311, 24 h
Penicillium ochrochloron [23] = experiment: Antifungal activity against Penicillium ochrochloron ATCC 9112 after 72 hrs by microdilution method; format: functional; conditions: ATCC 9112, 72 h
Aspergillus fumigatus [24] = experiment: Antifungal activity against Aspergillus fumigatus isolated from human after 72 hrs by microdilution method; format: functional
Staphylococcus aureus [25] = experiment: Antibacterial activity against Staphylococcus aureus ATCC 6538 after 24 hrs by microdilution method; format: functional; conditions: ATCC 6538, 24 h
Enterobacter cloacae [26] = experiment: Bactericidal activity against Enterobacter cloacae ATCC 35030 isolated from human after 72 hrs by microdilution method; format: functional
Penicillium ochrochloron [27] = experiment: Fungicidal activity against Penicillium ochrochloron ATCC 9112 after 72 hrs by microdilution method; format: functional
Aspergillus niger [28] = experiment: Fungicidal activity against Aspergillus niger ATCC 6275 after 72 hrs by microdilution method; format: functional
Listeria monocytogenes [29] = experiment: Antibacterial activity against Listeria monocytogenes NCTC 7973 after 24 hrs by microdilution method; format: functional; conditions: NCTC 7973, 24 h
Staphylococcus aureus [30] = experiment: Bactericidal activity against Staphylococcus aureus ATCC 6538 after 72 hrs by microdilution method; format: functional
Enterobacter cloacae [31] = experiment: Antibacterial activity against Enterobacter cloacae ATCC 35030 isolated from human after 24 hrs by microdilution method; format: functional; conditions: ATCC 35030, 24 h
Candida albicans [32] = experiment: Fungicidal activity against Candida albicans ATCC 10231 isolated from human after 72 hrs by microdilution method; format: functional
Aspergillus flavus [33] = experiment: Antifungal activity against Aspergillus flavus ATCC 9643 after 72 hrs by microdilution method; format: functional; conditions: ATCC 9643, 72 h
Aspergillus flavus [34] = experiment: Fungicidal activity against Aspergillus flavus ATCC 9643 after 72 hrs by microdilution method; format: functional

SMILES	MIC (Escherichia coli [1]) [µM]	MBC99.5 (Escherichia coli [2]) [×10⁻² umol/ml]	MFC99.5 (Talaromyces funiculosus [3]) [×10⁻² umol/ml]	MFC99.5 (Trichoderma viride [4]) [×10⁻² umol/ml]	MIC (Micrococcus flavus [5]) [µM]	MBC99.5 (Bacillus cereus [6]) [×10⁻² umol/ml]	MIC (Trichoderma viride [8]) [µM]	MIC (Aspergillus ochraceus [10]) [µM]	MIC (Talaromyces funiculosus [12]) [µM]	MIC (Aspergillus niger [14]) [µM]	MFC99.5 (Aspergillus fumigatus [15]) [×10⁻² umol/ml]	MIC (Aspergillus versicolor [16]) [µM]	MFC99.5 (Aspergillus ochraceus [17]) [×10⁻² umol/ml]	MIC (Candida albicans [19]) [µM]	MFC99.5 (Aspergillus versicolor [21]) [×10⁻² umol/ml]	MIC (Penicillium ochrochloron [23]) [µM]	MIC (Aspergillus fumigatus [24]) [µM]	MFC99.5 (Penicillium ochrochloron [27]) [×10⁻² umol/ml]	MFC99.5 (Aspergillus niger [28]) [×10⁻² umol/ml]	MFC99.5 (Candida albicans [32]) [×10⁻² umol/ml]	other results
CNc1nc(C)c(C2=NN(c3ccccc3)C(c3ccc([N+](=O)[O-])cc3)C2)s1 (stereo not given)	178 (≈ 70 µg/mL)	20.3	32.2	15.2	127 (≈ 50 µg/mL)	25.4	127 (≈ 50 µg/mL)	127 (≈ 50 µg/mL)	254 (≈ 99.9 µg/mL)	254 (≈ 99.9 µg/mL)	15.2	254 (≈ 99.9 µg/mL)	20.3	305 (≈ 120 µg/mL)	32.2	254 (≈ 99.9 µg/mL)	127 (≈ 50 µg/mL)	32.2	32.2	40.6	MBC99.5 (Micrococcus flavus [7]): 20.3 ×10⁻² umol/ml; MIC (Bacillus cereus [9]): 203 µM (≈ 79.9 µg/mL); MBC99.5 (Pseudomonas aeruginosa [11]): 25.4 ×10⁻² umol/ml; MIC (Pseudomonas aeruginosa [13]): 203 µM (≈ 79.9 µg/mL); MBC99.5 (Listeria monocytogenes [18]): 10.2 ×10⁻² umol/ml; MBC99.5 (Salmonella typhimurium [20]): 25.4 ×10⁻² umol/ml; MIC (Salmonella typhimurium [22]): 152 µM (≈ 59.8 µg/mL); MIC (Staphylococcus aureus [25]): 102 µM (≈ 40.1 µg/mL); MBC99.5 (Enterobacter cloacae [26]): 20.3 ×10⁻² umol/ml; MIC (Listeria monocytogenes [29]): 76 µM (≈ 29.9 µg/mL); MBC99.5 (Staphylococcus aureus [30]): 20.3 ×10⁻² umol/ml; MIC (Enterobacter cloacae [31]): 127 µM (≈ 50 µg/mL)
CNc1nc(C)c(C2=NN(c3ccccc3)C(c3ccc(Cl)cc3)C2)s1 (stereo not given)	183 (≈ 70.1 µg/mL)	21	36.7	21	105 (≈ 40.2 µg/mL)	31.4	131 (≈ 50.2 µg/mL)	131 (≈ 50.2 µg/mL)	262 (≈ 100 µg/mL)	131 (≈ 50.2 µg/mL)	26.2	131 (≈ 50.2 µg/mL)	15.7	157 (≈ 60.1 µg/mL)	21	131 (≈ 50.2 µg/mL)	131 (≈ 50.2 µg/mL)	15.7	26.2	26.2	MBC99.5 (Micrococcus flavus [7]): 21 ×10⁻² umol/ml; MIC (Bacillus cereus [9]): 157 µM (≈ 60.1 µg/mL); MBC99.5 (Pseudomonas aeruginosa [11]): 31.4 ×10⁻² umol/ml; MIC (Pseudomonas aeruginosa [13]): 152 µM (≈ 58.2 µg/mL); MBC99.5 (Listeria monocytogenes [18]): 10.5 ×10⁻² umol/ml; MBC99.5 (Salmonella typhimurium [20]): 18.3 ×10⁻² umol/ml; MIC (Salmonella typhimurium [22]): 152 µM (≈ 58.2 µg/mL); MIC (Staphylococcus aureus [25]): 105 µM (≈ 40.2 µg/mL); MBC99.5 (Enterobacter cloacae [26]): 18.3 ×10⁻² umol/ml; MIC (Listeria monocytogenes [29]): 52 µM (≈ 19.9 µg/mL); MBC99.5 (Staphylococcus aureus [30]): 21 ×10⁻² umol/ml; MIC (Enterobacter cloacae [31]): 131 µM (≈ 50.2 µg/mL)
c1ccc(-c2ccc(C(c3ccccc3)n3ccnc3)cc2)cc1 (stereo not given) [BIFONAZOLE]			80	80			640 (≈ 199 µg/mL)	480 (≈ 149 µg/mL)	640 (≈ 199 µg/mL)	480 (≈ 149 µg/mL)	64	480 (≈ 149 µg/mL)	80	322 (≈ 99.9 µg/mL)	64	480 (≈ 149 µg/mL)	480 (≈ 149 µg/mL)	64	64	48.3	MIC (Aspergillus flavus [33]): 480 µM (≈ 149 µg/mL); MFC99.5 (Aspergillus flavus [34]): 64 ×10⁻² umol/ml
CC(=O)N1CCN(c2ccc(OCC3COC(Cn4ccnc4)(c4ccc(Cl)cc4Cl)O3)cc2)CC1 (stereo not given) [KETOCONAZOLE]			95	570			4750 (≈ 2520 µg/mL)	380 (≈ 202 µg/mL)	380 (≈ 202 µg/mL)	380 (≈ 202 µg/mL)	95	2850 (≈ 1510 µg/mL)	95	376 (≈ 200 µg/mL)	380	3800 (≈ 2020 µg/mL)	380 (≈ 202 µg/mL)	380	95	94	MIC (Aspergillus flavus [33]): 2850 µM (≈ 1510 µg/mL); MFC99.5 (Aspergillus flavus [34]): 380 ×10⁻² umol/ml
